According to patent US11440886B2, “Anti-inflammatory compound, and preparation and use thereof” (E-Nitiate Biopharmaceuticals (Hangzhou) Co., Ltd., priority 2018, dated 2022):
pIC50: −log10 of the molar value.

Target: human recombinant PDE4B1 enzyme (Homo sapiens (Human), UniProt Q07343)
Assay: Inhibition of PDE4B1 activity by cAMP HTRF assay
Format: biochemical
Details: human recombinant PDE4B1, cAMP 40 nM, pH 7.4
Protocol: Determination of the inhibition of the compounds on PDE4B1 activity by using cAMP HTRF® assay
The inhibitory effect of the compounds on human PDE4B1 enzyme activity was determined by quantifying the 5′-adenosine monophosphate (5′-AMP) formed from 3′,5′-cyclic adenosine monophosphate (cAMP).
The test compound or water (control) and human recombinant PDE4B1 enzyme (4.8 U) were mixed in a buffer solution (pH 7.4) consisting of 1× Hanks' balanced salt solution (HBSS), 5 mM HEPES, 3 mM MgCl2, and 0.1% BSA and incubated for 10 min. A cAMP enzyme substrate (final concentration 40 nM) was added, and the mixture was incubated at room temperature for 60 min. Then a fluorescent acceptor (Dye2 labeled with cAMP), a fluorescent donor (anti-cAMP antibody labeled with europium cryptate) and a non-specific phosphodiesterase inhibitor IBMX (3-isobutyl-1-methyl xanthine; final concentration 1 mM) were added. After 60 min, the fluorescence transfer related to the amount of remaining cAMP was measured on a microplate reader (Rubystar, BMG) at λex=337 nm, λem=620 nm and λem=665 nm. The enzyme activity is calculated from the ratio of the signals measured at 665 nm and 620 nm. The results are expressed as percent inhibition of the enzyme activity of the control (without PDE4 inhibitor). The enzyme was omitted for measurement of the basic control. The IC50 value (IC50=the concentration that caused the half-maximum inhibition of the specific activity of the control) is derived from dose-response measurements with eight different concentrations (n=2; repeated 2 times)

Sequence of human recombinant PDE4B1 enzyme (Q07343 whole entry): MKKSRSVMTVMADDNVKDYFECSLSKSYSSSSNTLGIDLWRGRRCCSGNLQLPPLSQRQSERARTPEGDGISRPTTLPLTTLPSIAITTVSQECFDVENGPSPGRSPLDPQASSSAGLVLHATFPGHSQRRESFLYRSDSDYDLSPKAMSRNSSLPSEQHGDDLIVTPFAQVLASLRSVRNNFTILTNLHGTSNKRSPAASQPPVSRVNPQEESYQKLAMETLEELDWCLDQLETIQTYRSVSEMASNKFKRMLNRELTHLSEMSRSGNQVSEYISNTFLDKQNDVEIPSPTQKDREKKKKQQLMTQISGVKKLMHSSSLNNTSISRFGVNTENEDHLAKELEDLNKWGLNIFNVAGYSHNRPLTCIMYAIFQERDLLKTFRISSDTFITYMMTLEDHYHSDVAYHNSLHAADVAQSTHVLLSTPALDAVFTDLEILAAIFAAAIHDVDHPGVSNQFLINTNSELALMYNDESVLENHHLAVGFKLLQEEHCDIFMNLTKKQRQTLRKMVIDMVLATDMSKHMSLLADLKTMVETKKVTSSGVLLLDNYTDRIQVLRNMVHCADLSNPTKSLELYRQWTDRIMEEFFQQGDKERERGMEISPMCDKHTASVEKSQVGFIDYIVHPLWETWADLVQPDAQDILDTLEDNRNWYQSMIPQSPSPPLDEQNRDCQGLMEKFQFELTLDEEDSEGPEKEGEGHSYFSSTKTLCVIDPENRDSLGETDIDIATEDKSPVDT

Compound | pIC50
COc1ccc(C(=O)Cn2c(C)cc(=O)cc2C)cc1OCSC [Example 32, 1-(2-(3-methylthiomethoxy-4-methoxyphenyl)-2-oxoethyl)-2,6-dimethylpyridin-4(1H)-one] | 7.86
CC#CCOC(Cn1c(C)cc(=O)cc1C)c1ccc(OC)c(OCC2CC2)c1 (stereo not drawn) [Example 9, 1-(2-(but-2-yn-1-yloxy)-2-(3-cyclopropylmethoxy-4-methoxyphenyl)ethyl)-2,26-dimethylpyridin-4-(1H)-one] | 7.60
COc1ccc(/C(Cn2c(C)cc(=O)cc2C)=N/O)cc1OCC1CC1 [Example 38-1, (Z)-1-(2-(3-cyclopropylmethoxy-4-methoxyphenyl)-2-(hydroxyimido)ethyl)-2,6-dimethylpyridin-4(1H)-one] | 5.96
COc1ccc(C(=O)Cn2c(C)cc(=O)cc2C)cc1OC [Example 11, 1-(2-(3,4-dimethoxyphenyl)-2-oxoethyl)-2,6-dimethylpyridin-4(1H)-one] | 7.36
COc1ccc(C(=O)Cn2c(C)cc(=O)cc2C)cc1O [Example 10, 1-(2-(3-hydroxy-4-methoxyphenyl)-2-oxoethyl)-2,6-dimethylpyridin-4(1H)-one] | 5.48
COc1ccc(C(=O)Cn2c(C)cc(=O)cc2C)cc1OC1CCC1 [Example 21, 1-(2-(3-cyclobutyloxy-4-methoxyphenyl)-2-oxoethyl)-2,6-dimethylpyridin-4(1H)-one] | 8.34
C=CCOc1cc(C(=O)Cn2c(C)cc(=O)cc2C)ccc1OC [Example 26, 1-(2-(3-allyloxy-4-methoxyphenyl)-2-oxoethyl)-2,6-dimethylpyridin-4(1H)-one] | 7.41
COc1ccc(C(=O)Cn2c(C)cc(=O)cc2C)cc1OCC=C(C)C [Example 27, 1-(2-(3-((3-methylbut-2-en-1-yl)oxy)-4-methoxyphenyl)-2-oxoethyl)-2,6-dimethylpyridin-4(1H)-one] | 7.19
COc1ccc(CCn2c(C)cc(=O)cc2C)cc1OCC1CC1 [Example 60, (E)-1-(3-cyclopropylmethoxy-4-methoxyphenethyl)-2,6-dimethylpyridin-4(1H)-one] | 5.92
COc1ccc(/C(Cn2c(C)cc(=O)cc2C)=N/OCS(C)(=O)=O)cc1OCC1CC1 [Example 44, (Z)-1-(2-(3-cyclopropylmethoxy-4-methoxyphenyl)-2-(methylsulfonemethoxyimido)ethyl)-2,6-dimethylpyridin-4(1H)-one] | 7.52
COc1ccc(C(=O)Cn2c(C)cc(=O)cc2C)cc1OCCS(C)(=O)=O [Example 37, 1-(2-(3-methylsulfoneethoxy-4-methoxyphenyl)-2-oxoethyl)-2,6-dimethylpyridin-4(1H)-one] | 6.29
C/C=C/C(=O)OC(Cn1c(C)cc(=O)cc1C)c1ccc(OC)c(OCC2CC2)c1 (stereo not drawn) [Example 6, (1-(3-cyclopropylmethoxy-4methoxyphenyl)-2-(2,6-dimethyl-4-carbonylpyridin-1(4H)-yl)ethyl) crotonate] | 7.72
CCCCCOc1cc(C(=O)Cn2c(C)cc(=O)cc2C)ccc1OC [Example 17, 1-(2-(3-n-pentyloxy-4-methoxyphenyl)-2-oxoethyl)-2,6-dimethylpyridin-4(1H)-one] | 7.80
COc1ccc(C(=O)Cn2c(C)cc(=O)cc2C)cc1OCC(C)C [Example 16, 1-(2-(3-iso-butoxy-4-methoxyphenyl)-2-oxoethyl)-2,6-dimethylpyridin-4(1H)-one] | 7.99
COc1ccc(C(=O)Cn2c(C)cc(=O)cc2C)cc1OC1CC1 [Example 19, 1-(2-(3-cyclopropyloxy-4-methoxyphenyl)-2-oxoethyl)-2,6-dimethylpyridin-4(1H)-one] | 8.34
COc1ccc(/C(Cn2c(C)cc(=O)cc2C)=N\OCSC)cc1OCC1CC1 [Example 42, (E)-1-(2-(3-cyclopropylmethoxy-4-methoxyphenyl)-2-(methylthiomethoxyimido)ethyl)-2,6-dimethylpyridin-4(1H)-one] | 8.09
Cc1cc(=O)cc(C)n1CC(=O)c1ccc(OC(F)F)c(OCC2CC2)c1 [Example 49, 1-(2-(3-cyclopropylmethoxy-4-difluoromethoxyphenyl)-2-oxoethyl)-2,6-dimethylpyridin-4(1H)-one] | 8.54
CO/N=C(\Cn1c(C)cc(=O)cc1C)c1ccc(OC)c(OCC2CC2)c1 [Example 39, (Z)-1-(2-(3-cyclopropylmethoxy-4-methoxyphenyl)-2-(methoxyimido)ethyl)-2,6-dimethylpyridin-4(1H)-one] | 5.97
COc1ccc(C(=O)Cn2ccc(=O)cc2Cl)cc1OCC1CC1 [Example 47, 1-(2-(3-cyclopropylmethoxy-4-methoxyphenyl)-2-oxoethyl)-2-chloropyridin-4(1H)-one] | 8.15
COc1ccc(C(Cn2c(C)cc(=O)cc2C)OC(=O)C=C(C)C)cc1OCC1CC1 (stereo not drawn) [Example 7, (1-(3-cyclopropylmethoxy-4methoxyphenyl)-2-(2,6-dimethyl-4-carbonylpyridin-1(4H)-yl)ethyl) 3-methylcrotonate] | 8.24
COc1ccc(/C(Cn2c(C)cc(=O)cc2C)=N\O)cc1OCC1CC1 [Example 38-2, (E)-1-(2-(3-cyclopropylmethoxy-4-methoxyphenyl)-2-(hydroxyimido)ethyl)-2,6-dimethylpyridin-4(1H)-one] | 7.15
COc1ccc(C(=O)Cn2c(C)cc(=O)cc2C)cc1OCC[S+](C)[O-] (stereo not drawn) [Example 36, 1-(2-(3-methylsulfoxideethoxy-4-methoxyphenyl)-2-oxoethyl)-2,6-dimethylpyridin-4(1H)-one] | 5.90
COc1ccc(C(=O)Cn2c(C)cc(=O)cc2C)cc1OC1CCCC1 [Example 23, 1-(2-(3-cyclopentyloxy-4-methoxyphenyl)-2-oxoethyl)-2,6-dimethylpyridin-4(1H)-one] | 8.30

Results, then the compound that gave them:

pIC50 | Compound
7.57 | COc1ccc(/C=C/n2c(C)cc(=O)cc2C)cc1OC1COC1 [Example 68, (E)-1-((3-(oxacyclobutan-3-yl-oxy)-4-methoxy)-styryl)-2,6-dimethylpyridin-4(1H)-one]
7.89 | CSCCOc1cc(/C=C/n2c(C)cc(=O)cc2C)ccc1OC(F)F [Example 93, (E)-1-(3-methylthioethoxy-4-difluoromethoxystyryl)-2,6-dimethylpyridin-4(1H)-one]
8.00 | COc1ccc(/C(C#N)=C/n2c(C)cc(=O)cc2C)cc1OC [Example 115]
6.49 | COc1ccc(/C=C(\C(=O)N(C)C)n2c(C)cc(=O)cc2C)cc1OCC1CC1 [Example 118]
8.21 | COc1ccc(/C=C/n2c(C)cc(=O)cc2C)cc1OC1CCC1 [Example 61, (E)-1-(3-cyclobutyloxy-4-methoxy-styryl)-2,6-dimethylpyridin-4(1H)-one]
7.00 | Cc1cc(=O)cc(C)n1/C=C/c1ccc(OC(F)F)c(O[C@@H]2CC[S+]([O-])C2)c1 (single isomer, unassigned) [Example 101-1]
7.90 | Cc1cc(=O)cc(C)n1/C=C/c1ccc(OC(F)F)c(O[C@H]2CC[S+]([O-])C2)c1 (single isomer, unassigned) [Example 98-2]
7.30 | Cc1cc(=O)cc(C)n1/C=C/c1ccc(OC(F)F)c(O[C@@H]2CCS(=O)(=O)C2)c1 [Example 102, (R,E)-1-(3-(1,1-dioxotetrahydrothiophen-3-yl)oxy-4-difluoromethoxystyryl)-2,6-dimethylpyridin-4(1H)-one]
6.59 | Cc1cc(=O)cc(C)n1/C=C/c1ccc(OC(F)F)c(OCCS(C)(=O)=O)c1 [Example 95, (E)-1-(3-methylsulfoneethoxy-4-difluoromethoxystyryl)-2,6-dimethylpyridin-4(1H)-one]
7.85 | COc1ccc(/C(C)=C/n2c(C)cc(=O)cc2C)cc1OCC1CC1 [Example 103, (E)-1-(2-(3-cyclopropylmethoxy-4-methoxyphenyl)-2-methylethenyl)-2,6-dimethylpyridin-4(1H)-one]
6.80 | COc1ccc(/C=C/n2c(C)cc(=O)cc2C)cc1OCCS(C)(=O)=O [Example 79, (E)-1-(3-methylsulfoneethoxy-4-methoxystyryl)-2,6-dimethylpyridin-4(1H)-one]
7.03 | Cc1cc(=O)cc(C)n1/C=C/c1ccc(OC(F)F)c(OCS(C)(=O)=O)c1 [Example 92, (E)-1-(3-methylsulfonemethoxy-4-difluoromethoxy-styryl)-2,6-dimethylpyridin-4(1H)-one]
6.26 | COc1ccc(/C=C/n2c(C)cc(=O)cc2C)cc1O[C@H]1CC[S+]([O-])C1 (single isomer, unassigned) [Example 83-1]
6.98 | COc1ccc(/C=C/n2c(C)cc(=O)cc2C)cc1OCS(C)(=O)=O [Example 76, (E)-1-(3-methylsulfonemethoxy-4-methoxystyryl)-2,6-dimethylpyridin-4(1H)-one]
8.42 | CSCOc1cc(/C=C/n2c(C)cc(=O)cc2C)ccc1OC(F)F [Example 90, (E)-1-(3-methylthiomethoxy-4-difluoromethoxy-styryl)-2,6-dimethylpyridin-4(1H)-one]
6.86 | Cc1cc(=O)cc(C)n1/C=C/c1ccc(OC(F)F)c(OCC[S+](C)[O-])c1 (stereo not drawn) [Example 94, (E)-1-(3-methylsulfoxideethoxy-4-difluoromethoxystyryl)-2,6-dimethylpyridin-4(1H)-one]
